Values quoted from earlier work, collected in patent publication US20100151056A1, “DIETARY SUPPLEMENTS FOR DECREASING THE LATENT FOREIGN DNA LOAD” (priority 2008, published 2010).
Like-named read-outs stand apart in the source and are kept apart here.

What was measured:
[1] = test system: EBV immediate-early protein Rta in P3HR1 cells
[2] = test system: HBV cccDNA in HepG2-N10 cells; settings: 22.9 ug/ml
[3] = test system: KSHV latent genes (LANA-1, v-cyclin, v-FLIP)
LT1/LT2 promoter = settings: BJAB cells, GA-treated vs untreated
[4] = test system: LANA-1, v-cyclin, and v-FLIP proteins
cdk6 = settings: BC-1, BCBL-1 and BC-3 cells, Western blot
caspase cascade = settings: KSHV-positive B cells untreated and GA-treated, ELISA
AIF = settings: KSHV-positive B cells, GA for 4 days
[5] = test system: KSHV-positive and uninfected B cells
B cells = settings: 3 and 4 mM
[6] = test system: Epstein-Barr virus in Raji cells; settings: Raji cells superinfected with P2HR1 (LS) virus; read-out: concentration inhibiting EBV genome copy number and antigen expression by 50% (EC50)

In the case of `CCCCCCCCCCCCCC(=O)O[C@@H]1[C@@H](C)[C@@]2(O)[C@@H](C=C(CO)C[C@]3(O)C(=O)C(C)=C[C@@H]23)[C@@H]2C(C)(C)[C@]12OC(C)=O` [TPA, 12-O-tetradecanoyl-phorbol-13-acetate, reference compound], the “disruption of mitochondrial membranes or DNA condensation” value (KSHV-positive B cells; TPA treatment (latent to lytic switch)) is given as “did not disrupt”.
For `CC(/C=C/C(=O)NO)=C\[C@@H](C)C(=O)c1ccc(N(C)C)cc1` [TSA, reference compound], the “P3HR1 cells expressing Rta” value ([1]; following treatment with TSA) is given as 23.4%.
For `O=C(O[C@@H]1Cc2c(O)cc(O)cc2O[C@@H]1c1cc(O)c(O)c(O)c1)c1cc(O)c(O)c(O)c1` [EGCG, Epigallocatechin gallate], the “P3HR1 cells expressing Rta” value ([1]; 70 mM EGCG) is given as 9.8%, the “P3HR1 cells expressing Rta” value ([1]; 100 mM EGCG) is given as 0.5% and the “reduction of HBV cccDNA concentration” value [2] is given as 60%.
In the case of `Nc1nc(O)c2ncn(COC(CO)CO)c2n1` [ganciclovir], the “reduction of viral DNA load” value (CMV; by day 7, initial ganciclovir treatment of the same patient) is given as 1 log.
For `C[C@H]1[C@H](OC(=O)CCC(=O)O)O[C@@H]2O[C@@]3(C)CC[C@H]4[C@H](C)CC[C@@H]1[C@@]24OO3` [artesunate, Artesunate], the “viremia after completion of therapy” value (CMV; 76 days after completion of therapy) is given as “no increase in viremia”, the “viral decay T 1/2” value (CMV; CMV load kinetics during treatment) is given as 22 to 45.6 h and the “decrease of viral DNA load” value (CMV; by day 7, oral 100 mg/day) is given as 1.7-2.1 log. For the same molecule, the adverse effects (CMV; first 30 days of treatment) was “no adverse effects” and the “time to rapid reduction in viral load and improved hematopoiesis” value (CMV; oral 100 mg/day) was no more than 10 days.
In the case of `CC1(C)[C@@H](O[C@H]2O[C@H](C(=O)O)[C@@H](O)[C@H](O)[C@H]2O[C@@H]2O[C@H](C(=O)O)[C@@H](O)[C@H](O)[C@H]2O)CC[C@]2(C)[C@H]3C(=O)C=C4[C@@H]5C[C@@](C)(C(=O)O)CC[C@]5(C)CC[C@@]4(C)[C@]3(C)CC[C@@H]12` [GA, glycyrrhizic acid], the “LT1 transcripts (LANA-1 probe)” value ([3]; GA 3 and 4 mM, BCBL-1 2 days, BC-3 3 days, BC-2 and BC-1 6 days) is given as “dose-dependent decrease”, the “LT2 transcripts (v-FLIP and v-cyclin probes)” value ([3]; GA-treated KSHV-positive B cells) is given as “increase” and the “LT1/LT2 promoter activity (luciferase expression)” value (LT1/LT2 promoter) is given as “does not affect”. The LANA-1 expression ([4]; KSHV positive cells, BCBL-1, BC-3, BC-1 treated 2, 3, 6 days) was “decreased”, the cells over-expressing v-cyclin ([4]; KSHV-positive B cells following GA treatment, FACS) was 35-50% and the “increase of cdk6 expression” value (cdk6) was 8- to 11 fold. For the same molecule, the “apoptosis in BJAB cells” value (KSHV-positive B cells; KSHV-negative BJAB control cells) was “did not result in apoptosis”, the “apoptosis (TUNEL-positive cells)” value (KSHV-positive B cells; KSHV-positive cells, FACS) was 80-95% and the “disruption of mitochondrial membranes or DNA condensation” value (KSHV-positive B cells; uninfected B cells treated with GA) was “no disruptions”. For the same molecule, the “activation of the caspase cascade” value (caspase cascade) was “no activation”, the AIF localisation (AIF) was “diffuse nuclear staining” and the “phosphorylated form of p53” value (p53; BC-3 cells transfected with pLPCX/LANA-1, 4 mM GA for 4 days) was “very low concentration”. For the same molecule, the “p53 phosphorylated at Ser15” value (p53; KSHV-positive B cells following GA) was “high concentration”, the catalase activity increase (catalase; BC-1) was 3 fold and the catalase activity increase (catalase; BC-3) was 4 fold. For the same molecule, the catalase activity increase (catalase; BCBL-1) was 2 fold, the “cells blocked in G1” value ([5]; KSHV-positive B cells, after 6 days GA) was 99% and the “cells blocked in G1” value ([5]; uninfected cells, untreated or following GA) was 25-50%. The “toxicity at the tested levels” value (B cells) was “not being toxic” and the EC50 [6] was roughly 5 µM.
